Laboratory results published in patent US6995269B2, “Guanidinobenzamides” (Chiron Corporation, priority 2000, dated 2006).

Columns and labels:
Type in all cases: in vivo
[1] = system: ob/ob mice; experiment: Food intake in ob/ob mice, 4 week IP treatment; details: 3 mg/kg IP twice daily for 4 weeks, vs vehicle
Procedure: (§1) In vivo studies were conducted to observe the effect of MCR-4 agonists on energy intake, body weight, hyperinsulinemia, and glucose levels. All studies were conducted with male-9–10 week old ob/ob mice which display early onset of obesity, insulin resistance and diabetes due to leptin deficiency. Mice were acclimated in the facility for 1 week before studies and are caged individually. Vehicle-treated (control) and drug treated mice studies were always run in parallel. In multi-day studies, mice (8–15 per group) were monitored for baseline body weight, fasting levels of glucose, insulin, blood lipids and energy expenditure and then injected twice daily (9 a.m. and 5 p.m.) with 3 mg/kg of the MC4-R agonist 4-[(N-cyclohexyl-3,5-dimethyl-piperazine-1-carboximidoyl)-amino]-N-[2-(2,4-dichlorophenyl)-ethyl]-benzamide for 4 weeks. Body weight as well as food and water intake were monitored daily. […] Energy expenditure (resting metabolic rate, i.e., O2 consumption and CO2 production) were monitored in air tight chambers at the end of the study on fed animals. O2 consumption and CO2 production were measured using Oxymax systems (Columbus Instruments). […] Blood glucose and oral glucose tolerance were measured using a glucose monitor (Onetouch sold by Lifescan). Free fatty acids were measured using an non-esterified free fatty acids enzymatic assay (Waco Chemicals). […]

[2] = system: ob/ob mice; experiment: Body weight in ob/ob mice, 4 week IP treatment; details: 3 mg/kg IP twice daily for 4 weeks
Procedure: as §1

[3] = system: ob/ob mice; experiment: Fasting blood glucose in ob/ob mice, 4 week IP treatment; details: ob/ob mice fasted overnight, 3 mg/kg IP twice daily for 4 weeks, vs vehicle
Procedure: as §1

[4] = system: ob/ob mice; experiment: Oral glucose tolerance test (OGTT) in ob/ob mice at end of study; details: overnight fasted ob/ob mice at end of 4 week study, oral glucose load, vs vehicle
Procedure: as §1

[5] = system: ob/ob mice; experiment: Free fatty acid levels in ob/ob mice; details: ob/ob mice fasted overnight, drug treated IP vs vehicle
Procedure: as §1

[6] = system: ob/ob mice; experiment: Serum insulin levels after single IP dosing in ob/ob mice; details: overnight fasted ob/ob mice
Procedure: as §1

In the case of `CC1CN(C(=NC2CCCCC2)Nc2ccc(C(=O)NCCc3ccc(Cl)cc3Cl)cc2)CC(C)N1` (stereo not shown) [4-[(N-cyclohexyl-3,5-dimethyl-piperazine-1-carboximidoyl)-amino]-N-[2-(2,4-dichlorophenyl)-ethyl]-benzamide], the food intake [1] is reported as “significant reduction in food intake”, the “body weight less than the vehicle treated mice at the end of the study” value [2] is reported as 19% and the “decrease in fasting blood glucose levels” value [3] is reported as 47%. For the same molecule, the “decrease of the area under the curve of glucose in OGTT” value [4] was 45%, the “decrease in free fatty acid (FFA) levels” value [5] was 50% and the “decrease of serum insulin levels relative to vehicle” value ([6]; one hour after single IP dosing of 1 mg/kg) was 27%. For the same molecule, the “decrease of serum insulin levels relative to vehicle” value ([6]; one hour after single IP dosing of 3 mg/kg) was 55%.
